Earlier results on one substance are cited in article PMC7645643 (Engineering in Life Sciences, 2020).

On to Enfuvirtide [T-20], for which the in vivo half-life entry is “approximately 4 h”.
